Assay results from US9637499B2, “Benzodioxole or benzodioxepine heterocyclic compounds as phosphodiesterase inhibitors” (LEO PHARMA A/S, priority 2010, dated 2017).

Columns and labels:
[1] = In vivo pharmacokinetic analyses in rat, oral dosing; details: serum, PO dosing 5 mg/kg
Protocol: One rat is dosed orally (5 mg/kg—dissolved in DMSO/H2O/propylenglycol [1:5:4]) and blood samples are taken from the sublingual venous plexus at 30 min, 1 h, 2 h, 4 h and 6 h. Blood samples are taken in BD Vacutainer SST serum separation tubes, serum is isolated by centrifugation, transferred to micronics tubes and subsequently analysed.
Mass spectrometer (API5000 series) parameters are optimised to analyse for the specific compounds and test injections are performed to confirm the validity of the established generic chromatography method. The generic method is based on fast gradient (2.5 min) analysis on C18 column with mobile phases consisting methanol, ammonium acetate, formic acid and water.
Standards are prepared in rat serum to cover the analytical range 0.1 to 300 ng/ml. Standards, blank serum and study samples are applied to 96 deepwell plate and proteins are precipitated by addition of acetonitrile containing internal standard. Samples are analysed on LC-MS/MS usually overnight. Integration and quantification is performed on ration between analyte and internal standard using Analyst software version 1.5. Pharmacokinetic parameters are calculated using a standardised Excel spreadsheet.
In vivo pharmacokinetic profile in rat of compound 101 disclosed in WO 2008/104175 and compound 105 and 106 disclosed in examples 5 and 6, respectively: […]

[2] = biological target: Human recombinant PDE4 (Genbank accession no NM_006203) (Homo sapiens (Human), UniProt Q08499); assay: PDE4 Assay (SPA, cAMP cleavage); type: biochemical; details: human recombinant PDE4, 1 hour incubation, cAMP 1x10-5 M
Protocol: At the end of the incubation, the cleavage of the substrate was evaluated by the binding of the AMP product to SPA beads, which generate chemoluminescence when bound to the radioactive tracer. The AMP product inhibited the binding of the radioactive tracer to the beads, and the luminescent signal was competed.
The results were calculated as the molar concentrations resulting in 50% inhibition of the substrate cleavage compared to controls samples, and are expressed as IC50 (M).

Human recombinant PDE4 (Genbank accession no NM_006203), sequence (Q08499 other isoform, or with tags, fused parts or gaps): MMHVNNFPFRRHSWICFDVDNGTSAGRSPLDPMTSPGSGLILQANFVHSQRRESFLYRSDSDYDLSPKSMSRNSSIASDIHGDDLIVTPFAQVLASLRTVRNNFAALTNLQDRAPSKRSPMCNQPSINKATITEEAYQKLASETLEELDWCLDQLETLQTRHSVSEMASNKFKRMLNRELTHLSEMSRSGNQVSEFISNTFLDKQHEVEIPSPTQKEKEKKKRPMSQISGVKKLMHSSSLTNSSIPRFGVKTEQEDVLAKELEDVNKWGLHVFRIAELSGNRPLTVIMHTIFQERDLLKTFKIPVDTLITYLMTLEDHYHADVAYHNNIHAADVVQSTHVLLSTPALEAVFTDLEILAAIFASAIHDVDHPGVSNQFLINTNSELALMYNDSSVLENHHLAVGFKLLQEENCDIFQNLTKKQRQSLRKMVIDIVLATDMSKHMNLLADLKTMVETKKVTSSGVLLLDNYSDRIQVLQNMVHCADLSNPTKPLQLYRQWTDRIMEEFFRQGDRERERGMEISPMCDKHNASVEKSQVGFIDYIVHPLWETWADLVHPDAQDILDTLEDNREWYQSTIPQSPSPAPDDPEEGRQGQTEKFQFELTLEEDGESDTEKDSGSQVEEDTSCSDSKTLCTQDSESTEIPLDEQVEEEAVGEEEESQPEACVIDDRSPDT

Row | bioavailability [1] [%] | IC50 [2] [nM] | Structure (SMILES)
1 | 22 |  | O=C(Cc1c(Cl)c[n+]([O-])cc1Cl)c1ccc(OC(F)F)c2c1OC1(CCOCC1)O2 [compound 106, 2-(3,5-Dichloro-1-oxido-pyridine-4-yl)-1-(7-difluoromethoxy-2′,3′,5′,6′-tetrahydro-spiro[1,3-benzodioxole-2,4′-(4H)-pyran]-4-yl)ethanone]
2 |  | 106 | O=C(Nc1c(Cl)c[n+](O)cc1Cl)c1ccc(OC(F)F)c2c1OC1(CCS(=O)(=O)CC1)O2 [compound 111, N-(3,5-dichloro-1-oxo-4-pyridyl)-7-(difluoromethoxy)-1′,1′-dioxo-spiro[1,3-benzodioxole-2,4′-thiane]-4-carboxamide]
